Reference: patent US7759345B2, “Antitumoral derivatives of ET-743” (priority 2001, dated 2010)
Where two headings read alike, the source gives them in different places.

Key:
P-388 = assay: Inhibition of cell growth by counting cells, P-388; format: cell-based, mouse; settings: three days of incubation, read-out: IC50 (molar) P-388
Procedure: (§1) 1°.—Inhibition of Cell Growth by Counting Cells.
(§2) This form of the assay employs 24 well multidishes of 16 mm diameter (Bergeron, 1984; Schroeder, 1981). The tumor cell lines employed are: P-388 (ATCC CCL 46), suspension culture of a lymphoid neoplasm from a DBA/2 mouse; A-549 (ATCC CCL 185), monolayer culture of a human lung carcinoma; HT-29 (ATCC HTB-38), monolayer culture of a human colon carcinoma; MEL-28 (ATCC HTB-72), monolayer culture of a human melanoma and DU-145 (ATCC HTB-81), monolayer culture of a human prostate carcinoma.
(§3) Cells were maintained, in logarithmic phase of growth in Eagle's Minimum Essential Medium, with Earle's Balanced Salts, with non-essential amino acids, with 2.0 mM L-Glutamine, without sodium bicarbonate (EMEM/neaa), supplemented with 10% Fetal Calf Serum (FCS), 10^−2 M. sodium bicarbonate and 0.1 U/l penicillin G+0.1 g/l streptomycin sulfate. For the experiments, cells are harvested from subconfluent cultures using trypsin and resuspended in fresh medium before plating.
(§4) P-388 cells were seeded into 16 mm diameter wells at 1×10^4 cells per well in 1 ml aliquots of EMEM 5% FCS containing different concentrations of the sample to be tested. A separate set of cultures without drug was seeded as control of growth, to ensure that cells remained in exponential phase of growth. All determinations are carrying out in duplicate.
(§5) For quantifying the activity, after the incubation time, cells are trypsinized and counted in a Coulter Counter ZM. All counts (net cells per well), represent the average of duplicate wells. % G, percent of growth relative to cultures without drug. The results of these assays are used to generate dose-response curves from which more precise IC50 values are determined (sample concentration which produces 50% cell growth inhibition).
(§6) Obtained results may predict the usefulness of a certain drug as a potential cancer treatment. For this technique, compounds which show IC50 values smaller than 1 μg/ml are selected to continue with further studies. IC50's data allow to predict that not only could a drug be cystostatic, but also it could have a potential in terms of tumor reduction.

A-549 [1] = assay: Inhibition of cell growth by counting cells, A-549; format: cell-based, human; settings: three days of incubation, read-out: IC50 (molar) A-549
In short: (§7)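 Monolayer lines were plated at 1×10^4 cells per well with compound in medium containing 5% FCS. After a 3-day incubation at 37° C, crystal violet staining gave an approximate IC50, and cell counting of duplicate wells gave the dose-response IC50.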

HT-29 [2] = assay: Inhibition of cell growth by counting cells, HT-29; format: cell-based, human; settings: three days of incubation, read-out: IC50 (molar) HT-29
In short: as §7

MEL-28 = assay: Inhibition of cell growth by counting cells, MEL-28; format: cell-based, human; settings: three days of incubation, read-out: IC50 (molar) MEL-28
Procedure: as §1, §2, §3
as §4, with “A-549, HT-29, MEL-28 and DU-145” for “P-388”, “duplicate. After three days of incubation at 37° C., 5% CO2 in a 98% humid atmosphere cells were stained with 0.1% crystal violet. An approximately IC50 was determined by comparing the growth in wells with drug to the growth in wells control.” for “duplicate.”
as §5, §6

DU-145 = assay: Inhibition of cell growth by counting cells, DU-145; format: cell-based, human; settings: read-out: IC50 (molar) DU-145
Procedure: as §1, §2, §3
as §4, with “A-549, HT-29, MEL-28 and DU-145” for “P-388”, “duplicate. After three days of incubation at 37° C., 5% CO2 in a 98% humid atmosphere cells were stained with 0.1% crystal violet. An approximately IC50 was determined by comparing the growth in wells with drug to the growth in wells control.” for “duplicate.”
as §5, §6

A-549 [3] = assay: Inhibition of cells growth by colorimetric assay (SRB), A-549; format: cell-based
Procedure: (§8) 2°.—Inhibition of Cells Growth by Colorimetric Assay.
(§9) A colorimetric type of assay, using sulforhodamine B (SRB) reaction has been adapted for a quantitative measurement of cell growth and viability [following the technique described by Philip Skehan, et al. (1990), New colorimetric cytotoxicity assay for anticancer drug screening, J. Natl. Cancer Inst., 82:1107-1112]
(§10) This form of the assay employs 96 well cell culture microplates of 9 mm diameter (Faircloth, 1988; Mosmann, 1983). Most of the cell lines are obtained from American Type Culture Collection (ATCC) derived from different human cancer types.
(§11) Cells are maintained in RPMI 1640 10% FBS, supplemented with 0.1 g/l penicillin and 0.1 g/l streptomycin sulfate and then incubated at 37° C., 5% CO2 and 98% humidity. For the experiments, cells were harvested from subconfluent cultures using trypsin and resuspended in fresh medium before plating.
(§12) Cells are seeded in 96 well microtiter plates, at 5×10^3 cells per well in aliquots of 195 μl medium, and they are allowed to attach to the plate surface by growing in drug free medium for 18 hours. Afterward, samples are added in aliquots of 5 μl in a ranging from 10 to 10^−8 μg/ml, dissolved in DMSO/EtOH/PBS (0.5:0.5:99). After 48 hours exposure, the antitumor effect are measured by the SRB methodology: cells are fixed by adding 50 μl of cold 50% (wt/vol) trichloroacetic acid (TCA) and incubating for 60 minutes at 4° C. Plates are washed with deionized water and dried. One hundred μl of SRB solution (0.4% wt/vol in 1% acetic acid) is added to each microtiter well and incubated for 10 minutes at room temperature. Unbound SRB is removed by washing with 1% acetic acid. Plates are air dried and bound stain is solubilized with Tris buffer. Optical densities are read on a automated spectrophotometric plate reader at a single wavelength of 490 nm.
(§13) The values for mean+/−SD of data from triplicate wells are calculated. Some parameters for cellular responses can be calculated: GI=growth inhibition, TGI=total growth inhibition (cytostatic effect) and LC=cell killing (cytotoxic effect).
as §6, with “GI50” for “IC50”, “10” for “1”, “GI50's” for “IC50's”

SK-MEL-28 = assay: Inhibition of cells growth by colorimetric assay (SRB), SK-MEL-28; format: cell-based; settings: Homo sapiens, SK-MEL-28, 48 h, SRB assay, 48 hours exposure; read-out: MEL-28 GI50
Procedure: as §8, §9, §10, §11, §12, §13
as §6, with “GI50” for “IC50”, “10” for “1”, “GI50's” for “IC50's”

HT-29 [4] = assay: Inhibition of cells growth by colorimetric assay (SRB), HT-29; format: cell-based
Procedure: as §8, §9, §10, §11, §12, §13
as §6, with “GI50” for “IC50”, “10” for “1”, “GI50's” for “IC50's”

[5] = Homo sapiens, DU-145, 72 h, three days of incubation

SMILES	IC50 (P-388; Mus musculus, P388, 72 h) [nM]	IC50 (A-549 [1]; Homo sapiens, A549, 72 h) [nM]	IC50 (HT-29 [2]; Homo sapiens, HT-29, 72 h) [nM]	IC50 (MEL-28; Homo sapiens, SK-MEL-28, 72 h) [nM]	IC50 (DU-145; [5]) [nM]	further results
COc1cc2c(cc1OC(=O)C(F)(F)F)CCN[C@]21CS[C@@H]2c3c(OC(C)=O)c(C)c4c(c3[C@H](COC1=O)N1C2[C@H]2c3c(cc(C)c(OC)c3O)C[C@@H]([C@@H]1C#N)N2C)OCO4 (stereo partly drawn) [Compound 3]	1.15	1.15	1.15	1.15	1.15	
COc1cc2c(cc1OC(=O)OC(C)(C)C)CCN[C@]21CS[C@@H]2c3c(OC(C)=O)c(C)c4c(c3[C@H](COC1=O)N1C2[C@H]2c3c(cc(C)c(OC)c3O)C[C@@H]([C@@H]1C#N)N2C)OCO4 (stereo partly drawn) [Compound 4]	0.115	0.115	0.115	0.115	0.115	
COc1cc2c(cc1OC(=O)OC(C)(C)C)CCN[C@]21CS[C@@H]2c3c(OC(C)=O)c(C)c4c(c3[C@H](COC1=O)N1C2[C@H]2c3c(cc(C)c(OC)c3OC(=O)OC(C)(C)C)C[C@@H]([C@@H]1C#N)N2C)OCO4 (stereo partly drawn) [Compound 5]	0.515	0.515	0.515	0.515	0.515	
CCCC(=O)Oc1cc2c(cc1OC)[C@@]1(CS[C@@H]3c4c(OC(C)=O)c(C)c5c(c4[C@H](COC1=O)N1C3[C@H]3c4c(cc(C)c(OC)c4O)C[C@@H]([C@@H]1C#N)N3C)OCO5)NCC2 (stereo partly drawn) [Compound 7]	0.119	0.119	0.595	0.119	0.595	
COc1cc2c(cc1OC(=O)/C=C/c1ccccc1)CCN[C@]21CS[C@@H]2c3c(OC(C)=O)c(C)c4c(c3[C@H](COC1=O)N1C2[C@H]2c3c(cc(C)c(OC)c3O)C[C@@H]([C@@H]1C#N)N2C)OCO4 (stereo partly drawn) [Compound 8]	0.111	0.111	0.556	0.111		IC50 (DU-145; Homo sapiens, DU-145, 72 h): 0.556 nM
CCCC(=O)Oc1cc2c(cc1OC)[C@@]1(CS[C@@H]3c4c(OC(C)=O)c(C)c5c(c4[C@H](COC1=O)N1C3[C@H]3c4c(cc(C)c(OC)c4OC(=O)CCC)C[C@@H]([C@@H]1C#N)N3C)OCO5)NCC2 (stereo partly drawn) [Compound 9]	0.11	0.11	0.11	0.11	0.11	
COc1cc2c(cc1OC(=O)/C=C/c1ccccc1)CCN[C@]21CS[C@@H]2c3c(OC(C)=O)c(C)c4c(c3[C@H](COC1=O)N1C2[C@H]2c3c(cc(C)c(OC)c3OC(=O)/C=C/c3ccccc3)C[C@@H]([C@@H]1C#N)N2C)OCO4 (stereo partly drawn) [Compound 10]	9.7	9.7	9.7	9.7		IC50 (DU-145; Homo sapiens, DU-145, 72 h): 9.7 nM
CCCCCCCC(=O)Oc1cc2c(cc1OC)[C@@]1(CS[C@@H]3c4c(OC(C)=O)c(C)c5c(c4[C@H](COC1=O)N1C3[C@H]3c4c(cc(C)c(OC)c4O)C[C@@H]([C@@H]1C#N)N3C)OCO5)NCC2 (stereo partly drawn) [Compound 14]						IC50 (P-388): 1.11 nM; IC50 (A-549 [1]): 1.11 nM; IC50 (HT-29 [2]): 1.11 nM; IC50 (MEL-28): 1.11 nM; IC50 (DU-145; three days of incubation): 1.11 nM
CCCCCCCC(=O)Oc1cc2c(cc1OC)[C@@]1(CS[C@@H]3c4c(OC(C)=O)c(C)c5c(c4[C@H](COC1=O)N1C3[C@H]3c4c(cc(C)c(OC)c4OC(=O)CCCCCCC)C[C@@H]([C@@H]1C#N)N3C)OCO5)NCC2 (stereo partly drawn) [Compound 15]	97.8	97.8	97.8	97.8	97.8	
CCCCCCCCCCCCCCCC(=O)Oc1cc2c(cc1OC)[C@@]1(CS[C@@H]3c4c(OC(C)=O)c(C)c5c(c4[C@H](COC1=O)N1C3[C@H]3c4c(cc(C)c(OC)c4O)C[C@@H]([C@@H]1C#N)N3C)OCO5)NCC2 (stereo partly drawn) [Compound 16]	9.91	9.91	9.91	9.91	9.91	
CCCCCCCCCCCCCCCC(=O)Oc1cc2c(cc1OC)[C@@]1(CS[C@@H]3c4c(OC(C)=O)c(C)c5c(c4[C@H](COC1=O)N1C3[C@H]3c4c(cc(C)c(OC)c4OC(=O)CCCCCCCCCCCCCCC)C[C@@H]([C@@H]1C#N)N3C)OCO5)NCC2 (stereo partly drawn) [Compound 17]	80.2	80.2	80.2	80.2	80.2	
C=CCOC(=O)NC(CSCC1c2ccccc2-c2ccccc21)C(=O)Oc1cc2c(cc1OC)[C@@]1(CS[C@@H]3c4c(OC(C)=O)c(C)c5c(c4[C@H](COC1=O)N1C3[C@H]3c4c(cc(C)c(OC)c4O)C[C@@H]([C@@H]1C#N)N3C)OCO5)NCC2 (stereo partly drawn) [Compound 18]	0.441	0.441	0.441	0.441	0.441	
COc1cc2c(cc1OC(=O)CCCCC1SCC3NC(=O)NC31)CCNC21CSC2c3c(OC(C)=O)c(C)c4c(c3C(COC1=O)N1C(C#N)C3Cc5cc(C)c(OC)c(O)c5C(C21)N3C)OCO4 (stereo not drawn) [Compound 19]						IC50 (P-388): 0.502 nM; IC50 (A-549 [1]): 0.502 nM; IC50 (HT-29 [2]): 0.502 nM; IC50 (MEL-28): 0.502 nM; IC50 (DU-145; three days of incubation): 0.502 nM
CCCCCCCCCCCCCCCC(=O)Oc1cc2c(cc1OC)[C@@]1(CS[C@@H]3c4c(OC(C)=O)c(C)c5c(c4[C@H](COC1=O)N1C3[C@@H]3N[C@@H](Cc4cc(C)c(OC)c(O)c43)[C@@H]1O)OCO5)NCC2 (stereo partly drawn) [Compound 215]						GI50 (A-549 [3]; Homo sapiens, A549, 48 h, SRB assay, 48 hours exposure, read-out: A-549 GI50): 92.4 nM; LC50 (concentration for 50% cell killing) (A-549 [3]; Homo sapiens, A549, 48 h, read-out: A-549 LC50, SRB assay, 48 hours exposure): 10100 nM; A-549 TGI (A-549 [3]; SRB assay, 48 hours exposure): 1.01E-05; GI50 (SK-MEL-28): 19.7 nM; GI50 (HT-29 [4]; Homo sapiens, HT-29, 48 h, SRB assay, 48 hours exposure, read-out: HT-29 GI50): 86.8 nM; LC50 (concentration for 50% cell killing) (HT-29 [4]; Homo sapiens, HT-29, 48 h, read-out: HT-29 LC50, SRB assay, 48 hours exposure): 10100 nM; HT-29 TGI (HT-29 [4]; SRB assay, 48 hours exposure): 1.01E-05
